Earlier results on three molecules are cited in PMC4621921 (Oncotarget, 2015).

Where two headings read alike, the source gives them in different places.

Data set [1] has as its system castration-resistant prostate cancer. Also noted: method as in earlier work. The following applies: phase 3, castration-resistant prostate cancer; no statistically significant improvement.
A further data set has as its system prostate cancer. Also noted: method as in PMID 23169517. The following applies: phase 2, prostate cancer.
On the set-up of data set [2]: method as in PMID 23169517, PMID 24002501. To be noted: clinical studies.
For data set [3] the following is noted: in vivo.

In the case of `C[C@]12C=CC(=O)C=C1CC[C@@H]1[C@@H]2C(=O)C[C@@]2(C)[C@H]1CC[C@]2(O)C(=O)CO` [prednisone], in data set [1], the “median OS” value was 9.8 months.

On to `COc1cc2nccc(Oc3ccc(NC(=O)C4(C(=O)Nc5ccc(F)cc5)CC4)cc3)c2cc1OC` [cabozantinib], for which the “evaluable patients with regression in soft tissue lesions” value with prostate cancer was 72%. For the same molecule, in the data set with prostate cancer (versus 5.9 weeks with placebo), the PFS was 23.9 weeks. Also, in data set [2], the “common AEs” value is “fatigue, decreased appetite, and diarrhea”. Further, in data set [1], the “median OS” value was 11 months.

For `COc1cc2c(Oc3ccc(NC(=O)C4(C(=O)Nc5ccc(F)cc5)CC4)cc3F)ccnc2cc1OCCCN1CCOCC1` [foretinib], the “common AEs” value in data set [3] is “fatigue, hypertension, and gastrointestinal toxicities”.
